From patent publication US20260297080A1, “BICYCLIC COMPOUNDS AS CDK INHIBITORS” (BeOne Medicines I GmbH, priority 2022, published 2026)
Blank lines part the entries; values can stand above or below the molecule they belong to.

Experiments:
[1] = molecular target: CDK2/Cyclin E1 (Homo sapiens, UniProt P24941); assay: CDK2/Cyclin E1 Biochemical Assay (TR-FRET), 0.060 mM ATP; conditions: 0.15 μM Rb (Ser780)-biotin substrate, pH7.0, 60 min preincubation, 120 min reaction, room temperature
How it was run: (§1)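 Kinase preincubated with compound (0–10 μM) 60 min at room temperature, then reaction started with ATP and 0.15 μM Rb (Ser780)-biotin peptide and run 120 min in HEPES pH 7.0 buffer with 50 mM MgCl2. Phospho-Rb detected by Eu-cryptate anti-pRb(Ser780)/streptavidin-XL665 TR-FRET (665/620 nm ratio); IC50 from four-parameter logistic fit.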

[2] = molecular target: CDK1/Cyclin B1 (Homo sapiens, UniProt P06493); assay: CDK1/Cyclin B1 Biochemical Assay (TR-FRET), 0.015 mM ATP; conditions: 0.15 μM Rb (Ser780)-biotin substrate, pH7.0, 60 min preincubation, 120 min reaction, room temperature
Sequence of CDK1/Cyclin B1 (P06493 whole entry): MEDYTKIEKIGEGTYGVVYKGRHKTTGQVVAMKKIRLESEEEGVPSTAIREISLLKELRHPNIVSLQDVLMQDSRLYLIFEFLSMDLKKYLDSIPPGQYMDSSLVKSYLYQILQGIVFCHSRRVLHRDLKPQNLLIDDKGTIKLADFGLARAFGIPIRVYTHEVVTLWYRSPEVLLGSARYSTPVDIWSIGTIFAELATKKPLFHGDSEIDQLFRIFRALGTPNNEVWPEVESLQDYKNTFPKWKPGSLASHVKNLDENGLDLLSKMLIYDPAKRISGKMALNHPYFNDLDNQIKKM
Sequence of CDK1/Cyclin B1 (P14635 whole entry partner): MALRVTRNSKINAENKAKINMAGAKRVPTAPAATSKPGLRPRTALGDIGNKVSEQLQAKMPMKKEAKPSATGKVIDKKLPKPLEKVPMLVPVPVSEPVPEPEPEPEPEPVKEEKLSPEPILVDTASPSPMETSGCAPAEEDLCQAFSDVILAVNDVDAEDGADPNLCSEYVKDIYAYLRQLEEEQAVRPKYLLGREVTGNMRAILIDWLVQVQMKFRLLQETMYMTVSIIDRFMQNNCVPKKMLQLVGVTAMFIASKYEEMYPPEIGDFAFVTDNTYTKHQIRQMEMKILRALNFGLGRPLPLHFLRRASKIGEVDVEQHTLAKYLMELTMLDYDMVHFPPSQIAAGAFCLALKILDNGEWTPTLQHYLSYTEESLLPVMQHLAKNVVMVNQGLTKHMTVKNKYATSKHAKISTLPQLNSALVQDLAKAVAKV
How it was run: as §1

Compound: CC(C)NC(=O)O[C@H]1CC[C@@H](c2cc(Nc3ccc4c(c3F)S(=O)(=O)NC4)n[nH]2)C1 (single isomer, unassigned) [Example 186a, cis-3-(3-((7-fluoro-1,1-dioxido-2,3-dihydrobenzo[d]isothiazol-6-yl)amino)-1H-pyrazol-5-yl)cyclopentyl isopropylcarbamate]
IC50 [1]: 4.8 nM
IC50 [2]: 255 nM

Compound: CN1c2ccc(Nc3cc([C@@H]4CC[C@H](OC(=O)N[C@H]5CC[C@@H](O)CC5)C4)[nH]n3)cc2CS1(=O)=O (relative stereo) [Example 341, cis-3-(3-((1-methyl-2,2-dioxido-1,3-dihydrobenzo[c]isothiazol-5-yl)amino)-1H-pyrazol-5-yl)cyclopentyl((1s,4s)-4-hydroxycyclohexyl)carbamate]
IC50 [1]: 4.7 nM
IC50 [2]: 77 nM

Compound: CC(C)NC(=O)O[C@H]1CC[C@@H](c2cc(Nc3ccc4c(c3F)CN(Cc3ccccc3)S4(=O)=O)n[nH]2)C1 (relative stereo) [Example 75, cis-3-(3-((2-benzyl-4-fluoro-1,1-dioxido-2,3-dihydrobenzo[d]isothiazol-5-yl)amino)-1H-pyrazol-5-yl)cyclopentyl isopropylcarbamate]
IC50 [1]: 16 nM
IC50 [2]: 1080 nM

Compound: CC1(NC(=O)O[C@H]2CC[C@@H](c3cc(Nc4ccc5c(c4F)CS(=O)(=O)N5CCO)n[nH]3)C2)COC1 (relative stereo) [Example 390, cis-3-(3-((4-fluoro-1-(2-hydroxyethyl)-2,2-dioxido-1,3-dihydrobenzo[c]isothiazol-5-yl)amino)-1H-pyrazol-5-yl)cyclopentyl(3-methyloxetan-3-yl)carbamate]
IC50 [1]: 2.5 nM
IC50 [2]: 236 nM

Compound: CC(C)NC(=O)OC1CC(c2cc(Nc3ccc4c(c3)CNS4(=O)=O)n[nH]2)C1 (stereo not drawn) [Example 173, 3-(3-((1,1-dioxido-2,3-dihydrobenzo[d]isothiazol-5-yl)amino)-1H-pyrazol-5-yl)cyclobutyl isopropylcarbamate]
IC50 [1]: 6.7 nM
IC50 [2]: 73 nM

Compound: CC(C)NC(=O)O[C@H]1CC[C@@H](c2cc(Nc3ccc4c(c3)CN(C)S4(=O)=O)n[nH]2)C1 (relative stereo) [Example 11, cis-3-(3-((2-methyl-1,1-dioxido-2,3-dihydrobenzo[d]isothiazol-5-yl)amino)-1H-pyrazol-5-yl)cyclopentyl isopropylcarbamate]
IC50 [1]: 4.1 nM
IC50 [2]: 140 nM

Compound: CC1(NC(=O)O[C@H]2CC[C@@H](c3cc(Nc4ccc5c(c4F)CS(=O)(=O)N5CC(F)(F)F)n[nH]3)C2)COC1 (relative stereo) [Example 409, cis-3-(3-((4-fluoro-2,2-dioxido-1-(2,2,2-trifluoroethyl)-1,3-dihydrobenzo[c]isothiazol-5-yl)amino)-1H-pyrazol-5-yl)cyclopentyl(3-methyloxetan-3-yl)carbamate]
IC50 [1]: 5.8 nM
IC50 [2]: 210 nM

Compound: CC(C)NC(=O)O[C@H]1CC[C@@H](c2cc(Nc3ccc4c(c3F)CN(CC3CCN(C)C3=O)S4(=O)=O)n[nH]2)C1 (relative stereo) [Example 111, cis-3-(3-((4-fluoro-2-((1-methyl-2-oxopyrrolidin-3-yl)methyl)-1,1-dioxido-2,3-dihydrobenzo[d]isothiazol-5-yl)amino)-1H-pyrazol-5-yl)cyclopentyl isopropylcarbamate]
IC50 [1]: 2.1 nM
IC50 [2]: 225 nM

Compound: CC[C@H](C)NC(=O)O[C@H]1CC[C@@H](c2cc(Nc3ccc4c(c3Cl)CNS4(=O)=O)n[nH]2)C1 (relative stereo) [Example 41, cis-3-(3-((4-chloro-1,1-dioxido-2,3-dihydrobenzo[d]isothiazol-5-yl)amino)-1H-pyrazol-5-yl)cyclopentyl((S)-sec-butyl)carbamate]
IC50 [1]: 2.3 nM
IC50 [2]: 512 nM

Compound: CC(C)NC(=O)O[C@H]1CC[C@@H](c2cc(Nc3ccc4c(c3)C3(CCC3)S(=O)(=O)N4)n[nH]2)C1 (relative stereo) [Example 199, cis-3-(3-((2,2-dioxido-1H-spiro[benzo[c]isothiazole-3,1′-cyclobutan]-5-yl)amino)-1H-pyrazol-5-yl)cyclopentyl isopropylcarbamate]
IC50 [1]: 5.5 nM
IC50 [2]: 84 nM

Compound: C[C@H]1[C@H](O)CN1C(=O)O[C@H]1CC[C@@H](c2cc(Nc3ccc4c(c3F)CNS4(=O)=O)n[nH]2)C1 (relative stereo) [Example 145, cis-3-(3-((4-fluoro-1,1-dioxido-2,3-dihydrobenzo[d]isothiazol-5-yl)amino)-1H-pyrazol-5-yl)cyclopentyl(2S,3R)-3-hydroxy-2-methylazetidine-1-carboxylate]
IC50 [1]: 14 nM
IC50 [2]: 267 nM

Compound: CC(C)NC(=O)O[C@H]1CC[C@@H](c2cc(Nc3ccc4c(c3F)CN(C)S4(=O)=O)n[nH]2)C1 (single isomer, unassigned) [Example 121a, cis-3-(3-((4-fluoro-2-methyl-1,1-dioxido-2,3-dihydrobenzo[d]isothiazol-5-yl)amino)-1H-pyrazol-5-yl)cyclopentyl isopropylcarbamate]
IC50 [1]: 5.8 nM
IC50 [2]: 425 nM

Compound: COCCN1Cc2cc(Nc3cc([C@@H]4CC[C@H](OC(=O)NC(C)C)C4)[nH]n3)c(F)cc2S1(=O)=O (relative stereo) [Example 48, cis-3-(3-((6-fluoro-2-(2-methoxyethyl)-1,1-dioxido-2,3-dihydrobenzo[d]isothiazol-5-yl)amino-1H-pyrazol-5-yl)cyclopentyl isopropylcarbamate]
IC50 [1]: 243 nM
IC50 [2]: > 10000 nM

Compound: CC(C)NC(=O)O[C@H]1CC[C@@H](c2cc(Nc3ccc4c(c3)S(=O)(=O)NC4C)[nH]n2)C1 (single isomer, unassigned) [Example 5b, cis-3-(5-((3-methyl-1,1-dioxido-2,3-dihydrobenzo[d]isothiazol-6-yl)amino)-1H-pyrazol-3-yl)cyclopentyl isopropylcarbamate]
IC50 [1]: 1 nM
IC50 [2]: 14 nM

Compound: CC[C@H](C)NC(=O)O[C@H]1CC[C@@H](c2cc(Nc3ccc4c(c3)CS(=O)(=O)N4C)n[nH]2)C1 (relative stereo) [Example 222, cis-3-(3-((1-methyl-2,2-dioxido-1,3-dihydrobenzo[c]isothiazol-5-yl)amino)-1H-pyrazol-5-yl)cyclopentyl((S)-sec-butyl)carbamate]
IC50 [1]: 5 nM
IC50 [2]: 48 nM

Compound: CC(C)NC(=O)O[C@H]1CC[C@@H](c2cc(Nc3ccc4c(c3F)CN(CC(C)(C)O)S4(=O)=O)n[nH]2)C1 (relative stereo) [Example 76, cis-3-(3-((4-fluoro-2-(2-hydroxy-2-methylpropyl)-1,1-dioxido-2,3-dihydrobenzo[d]isothiazol-5-yl)amino)-1H-pyrazol-5-yl)cyclopentyl isopropylcarbamate]
IC50 [1]: 10 nM
IC50 [2]: 416 nM

Compound: CC(C)NC(=O)O[C@@H]1CC[C@H](c2cc(Nc3ccc4c(c3)CS(=O)(=O)N4C)n[nH]2)C1 (single isomer, unassigned) [Example 220a]
IC50 [1]: 2.6 nM
IC50 [2]: 56 nM

Compound: [2H]C([2H])([2H])C1c2cc(Nc3cc([C@@H]4CC[C@H](OC(=O)N[C@@H](C)CC)C4)[nH]n3)cc(F)c2N(C([2H])([2H])[2H])S1(=O)=O (relative stereo) [Example 286, cis-3-(3-((7-fluoro-1,3-bis(methyl-d3)-2,2-dioxido-1,3-dihydrobenzo[c]isothiazol-5-yl)amino)-1H-pyrazol-5-yl)cyclopentyl((S)-sec-butyl)carbamate]
IC50 [1]: 11 nM
IC50 [2]: 174 nM

Now from value to molecule:

IC50 [1]: 2 nM
IC50 [2]: 37 nM
Compound: CCCNC(=O)O[C@H]1CC[C@@H](c2cc(Nc3ccc4c(c3F)CS(=O)(=O)N4)n[nH]2)C1 (single isomer, unassigned) [Example 387b]

IC50 [1]: 1.4 nM
IC50 [2]: 152 nM
Compound: CN1c2ccc(Nc3cc([C@@H]4CC[C@H](OC(=O)NC5(C)CCOC5)C4)[nH]n3)c(F)c2CS1(=O)=O (single isomer, unassigned) [Example 349d, cis-3-(3-((4-fluoro-1-methyl-2,2-dioxido-1,3-dihydrobenzo[c]isothiazol-5-yl)amino)-1H-pyrazol-5-yl)cyclopentyl(3-methyltetrahydrofuran-3-yl)carbamate]

IC50 [1]: 0.6 nM
IC50 [2]: 12 nM
Compound: CC1(NC(=O)O[C@H]2CC[C@@H](c3cc(Nc4ccc5c(c4)CCS(=O)(=O)N5)n[nH]3)C2)CC1 (single isomer, unassigned) [Example 249b, cis-3-(3-((2,2-dioxido-3,4-dihydro-1H-benzo[c][1,2]thiazin-6-yl)amino)-1H-pyrazol-5-yl)cyclopentyl(1-methylcyclopropyl)carbamate]

IC50 [1]: 0.6 nM
IC50 [2]: 3.2 nM
Compound: CC1NS(=O)(=O)c2ccc(Nc3cc([C@@H]4CC[C@H](OC(=O)NC5(C)CC5)C4)[nH]n3)cc21 (single isomer, unassigned) [Example 322b, cis-3-(3-((3-methyl-1,1-dioxido-2,3-dihydrobenzo[d]isothiazol-5-yl)amino)-1H-pyrazol-5-yl)cyclopentyl(1-methylcyclopropyl)carbamate]

IC50 [1]: 0.7 nM
IC50 [2]: 5.6 nM
Compound: CC1NS(=O)(=O)c2ccc(Nc3cc([C@@H]4CC[C@H](OC(=O)NC5(C)CC5)C4)[nH]n3)cc21 (single isomer, unassigned) [Example 322d, cis-3-(3-((3-methyl-1,1-dioxido-2,3-dihydrobenzo[d]isothiazol-5-yl)amino)-1H-pyrazol-5-yl)cyclopentyl(1-methylcyclopropyl)carbamate]

IC50 [1]: 2.3 nM
IC50 [2]: 68 nM
Compound: CC(C)NC(=O)O[C@H]1CC[C@@H](c2cc(Nc3ccc4c(c3)CCS(=O)(=O)N4)n[nH]2)C1 (single isomer, unassigned) [Example 246b, cis-3-(3-((2,2-dioxido-3,4-dihydro-1H-benzo[c][1,2]thiazin-6-yl)amino)-1H-pyrazol-5-yl)cyclopentyl isopropylcarbamate]
